Patent US8916555B2, “3,5-diaminopyrazole kinase inhibitors” (Axikin Pharmaceuticals, Inc., priority 2012, dated 2014)

Legend:
[1] = biological target: T1, kinase domain protein of RC kinase (Homo sapiens, UniProt Q56UN5); assay: Enzymatic assay for kinase inhibitory activity (Crebtide substrate, LANCE readout), kinase domain protein; format: biochemical; details: test compound 1 μM, ATP 1 μM, Crebtide 50 nM
T1 sequence (Q56UN5 1061-1324 limits assumed): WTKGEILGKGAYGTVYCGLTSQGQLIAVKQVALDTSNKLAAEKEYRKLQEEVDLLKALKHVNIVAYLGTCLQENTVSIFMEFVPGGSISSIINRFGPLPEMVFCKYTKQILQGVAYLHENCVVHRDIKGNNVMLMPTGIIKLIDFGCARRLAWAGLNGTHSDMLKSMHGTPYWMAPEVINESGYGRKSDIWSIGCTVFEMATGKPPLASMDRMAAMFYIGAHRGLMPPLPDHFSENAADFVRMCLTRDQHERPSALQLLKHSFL
Outline: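 Kinase domain (1 mg/mL final) with 50 nM Crebtide and 1 μM ATP in MAPK buffer (50 mM HEPES, 10 mM MgCl2, 2 mM DTT, 0.01% Tween 20), 45 min RT. Compound at 1 μM or 1×IC50, duplicate. EDTA/anti-Crebtide stop, 45 min development, LANCE 665/615 nm; % inhibition at 1 μM binned A–D.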

SMILES | inhibition at 1 µM [1] [%] | melting point [°C] | Activity (inhibition of the RC kinase activity at 1 μM) [1]
COc1cccc(CNc2[nH]nc(Nc3cccnc3)c2C(N)=O)c1 [Compound D152] | 20 to 50 | 226 to 230 | –
NC(=O)c1c(Nc2cccc(Cl)c2)n[nH]c1NCc1ccco1 [Compound D96, 3-((3-chlorophenyl)amino)-5-((furan-2-ylmethyl)amino)-1H-pyrazole-4-carboxamide] | 20 to 50 | 214 to 220 | –
NC(=O)c1c(Nc2cccc(Cl)c2)n[nH]c1NCc1ccoc1 [Compound D97] | 5 to 20 | 219 to 221 | –
COc1ccc(CNc2n[nH]c(NCc3ccc(O)cc3)c2C(N)=O)cn1 [Compound D112] | 20 to 50 | 178 to 180 | –
CCOC(=O)c1cccc(Nc2n[nH]c(NCc3ccc(O)cc3)c2C(N)=O)c1 [Compound D67, ethyl 3-((4-carbamoyl-5-((4-hydroxybenzyl)amino)-1H-pyrazol-3-yl)amino)benzoate] | ≥ 50 | 132 to 136 | –
NC(=O)c1c(NCc2c(F)cccc2Cl)n[nH]c1NCc1ccc(O)cc1 [Compound D115] | 5 to 20 | 215 to 218 | –
COc1ccc(CNc2[nH]nc(Nc3cccc(Cl)c3)c2C(N)=O)c(OC)c1OC [Compound D69] | 5 to 20 | 196 to 200 | –
NC(=O)c1c(Nc2ccc(NC(=O)c3ccc(F)cc3)cc2)n[nH]c1NCc1ccc(O)cc1 [Compound D132, 3-((4-(4-fluorobenzamido)phenyl)amino)-5-((4-hydroxybenzyl)amino)-1H-pyrazole-4-carboxamide] | ≥ 50 | 227 to 231 | –
CC(C)(C)OC(=O)Nc1ccc(Nc2n[nH]c(NCc3ccc(O)cc3)c2C(N)=O)cc1 [Compound D135] | ≥ 50 | 222 to 226 | –
N#CCc1ccc(Nc2n[nH]c(NCc3ccc(O)cc3)c2C(N)=O)cc1 [Compound D64, 3-((4-(cyanomethyl)phenyl)amino)-5-((4-hydroxybenzyl)amino)-1H-pyrazole-4-carboxamide] | ≥ 50 | 200 to 203 | –
Cc1cn(-c2ccc(Nc3n[nH]c(NCc4ccc(O)cc4)c3C(N)=O)cc2)cn1 [Compound D98, 5-((4-hydroxybenzyl)amino)-3-((4-(4-methyl-1H-imidazol-1-yl)phenyl)amino)-1H-pyrazole-4-carboxamide] | ≥ 50 | 257 to 260 | –
COc1ccc(CNc2[nH]nc(Nc3cccc(Cl)c3)c2C#N)cc1F [Compound C27] | 5 to 20 | 97 to 105 | –
COc1cccc(Nc2n[nH]c(NCc3ccc(O)cc3)c2C(N)=O)c1 [Compound D65, 5-((4-hydroxybenzyl)amino)-3-((3-methoxyphenyl)amino)-1H-pyrazole-4-carboxamide] | ≥ 50 | 177 to 180 | –
N#Cc1c(Nc2cccc(Cl)c2)n[nH]c1NCc1ccc(Oc2ccc(C(F)(F)F)cn2)cc1 [Compound C2] | – | 62 to 72 | B (no greater than 50% but at least 20% inhibition of the RC kinase activity at 1 μM)
COc1cc(CNc2[nH]nc(Nc3cccnc3)c2C(N)=O)ccc1F [Compound D40, 5-((4-fluoro-3-methoxybenzyl)amino)-3-(pyridin-3-ylamino)-1H-pyrazole-4-carboxamide] | 20 to 50 | 226 to 229 | –
NC(=O)c1c(Nc2ccc(C(F)(F)F)nc2)n[nH]c1NCc1ccc(O)cc1 [Compound D91] | ≥ 50 | 259 to 265 | –
NC(=O)c1c(Nc2ccc(N3CCC(N4CCCC4)CC3)cc2)n[nH]c1NCc1ccc(O)cc1 [Compound D121] | ≥ 50 | 241 to 244 | –
COc1cc(CNc2[nH]nc(NCc3ccc(O)cc3)c2C(N)=O)ccc1F [Compound D105] | 20 to 50 | 180 to 184 | –

SMILES | inhibition at 1 µM [1] [%] | melting point [°C] | Activity (inhibition of the RC kinase activity at 1 μM) [1]
NC(=O)c1c(Nc2cccc(Cl)c2)n[nH]c1NCc1ccc(O)cc1 [Compound D1, 3-((3-chlorophenyl)amino)-5-((4-hydroxybenzyl)amino)-1H-pyrazole-4-carboxamide] | ≥ 50 | 196 to 200 | –
COc1ccccc1CNc1[nH]nc(Nc2cccc(Cl)c2)c1C(N)=O [Compound D157, 3-((3-chlorophenyl)amino)-5-((2-methoxybenzyl)amino)-1H-pyrazole-4-carboxamide] | 5 to 20 | 225 to 227 | –
NC(=O)c1c(Nc2ccc(N)cc2)n[nH]c1NCc1ccc(O)cc1 [Compound D101, 3-((4-aminophenyl)amino)-5-((4-hydroxybenzyl)amino)-1H-pyrazole-4-carboxamide] | ≥ 50 | 190 to 193 | –
NC(=O)c1c(Nc2ccc(-n3ccnc3)cc2)n[nH]c1NCc1ccc(O)cc1 [Compound D60] | ≥ 50 | 228 to 231 | –
CN(C)c1ccc(CNc2[nH]nc(Nc3cccnc3)c2C(N)=O)c2ccccc12 [Compound D42, 5-(((4-(dimethylamino)naphthalen-1-yl)methyl)amino)-3-(pyridin-3-ylamino)-1H-pyrazole-4-carboxamide] | 20 to 50 | 225 to 229 | –
NC(=O)c1c(NCc2ccc(Cl)c(F)c2)n[nH]c1NCc1ccc(O)cc1 [Compound D122] | 5 to 20 | 204 to 207 | –
NC(=O)c1c(Nc2ccc(S(N)(=O)=O)cc2)n[nH]c1NCc1ccc(O)cc1 [Compound D107, 5-((4-hydroxybenzyl)amino)-3-((4-sulfamoylphenyl)amino)-1H-pyrazole-4-carboxamide] | ≥ 50 | 270 to 275 | –
NC(=O)c1c(Nc2cccnc2)n[nH]c1NCc1ccc[nH]1 [Compound D53, 5-(((1H-pyrrol-2-yl)methyl)amino)-3-(pyridin-3-ylamino)-1H-pyrazole-4-carboxamide] | 5 to 20 | 201 to 206 | –
NC(=O)c1c(Nc2cccnc2)n[nH]c1NCc1cccc(O)c1 [Compound D38, 5-((3-hydroxybenzyl)amino)-3-(pyridin-3-ylamino)-1H-pyrazole-4-carboxamide] | ≥ 50 | 208 to 212 | –
NC(=O)c1c(Nc2ccccc2)n[nH]c1NCc1ccc(O)cc1 [Compound D2] | 20 to 50 | 214 to 216 | –
COc1cc(OC)c(OC)cc1CNc1[nH]nc(Nc2cccnc2)c1C(N)=O [Compound D46, 3-(pyridin-3-ylamino)-5-((2,4,5-trimethoxybenzyl)amino)-1H-pyrazole-4-carboxamide] | 5 to 20 | 197 to 202 | –
NC(=O)c1c(Nc2cccnc2)n[nH]c1NCc1ccccc1 [Compound D155, 5-(benzylamino)-3-(pyridin-3-ylamino)-1H-pyrazole-4-carboxamide] | 5 to 20 | 228 to 231 | –
NC(=O)c1c(Nc2ccc(N3CCOCC3)nc2)n[nH]c1NCc1ccc(O)cc1 [Compound D118] | ≥ 50 | 199 to 203 | –
NC(=O)c1c(Nc2cccc(Cl)c2)n[nH]c1NCc1cccs1 [Compound D95, 3-((3-chlorophenyl)amino)-5-((thiophen-2-ylmethyl)amino)-1H-pyrazole-4-carboxamide] | ≤ 5 | 222 to 227 | –
NC(=O)c1c(Nc2ccc(F)cc2)n[nH]c1NCc1ccc(O)cc1 [Compound D163] | ≥ 50 | 204 to 207 | –
NC(=O)c1c(Nc2cccnc2)n[nH]c1NCc1ccc(Cl)cc1 [Compound D154, 5-((4-chlorobenzyl)amino)-3-(pyridin-3-ylamino)-1H-pyrazole-4-carboxamide] | 5 to 20 | 228 to 231 | –
NC(=O)c1c(Nc2ccc(Cl)c(Cl)c2)n[nH]c1NCc1ccc(O)cc1 [Compound D158, 3-((3,4-dichlorophenyl)amino)-5-((4-hydroxybenzyl)amino)-1H-pyrazole-4-carboxamide] | ≥ 50 | 203 to 209 | –
NC(=O)c1c(Nc2ccc(NC(=O)c3sc4cc(F)ccc4c3Cl)cc2)n[nH]c1NCc1ccc(O)cc1 [Compound D141, 3-((4-(3-chloro-6-fluorobenzo[b]thiophene-2-carboxamido)phenyl)amino)-5-((4-hydroxybenzyl)amino)-1H-pyrazole-4-carboxamide] | 20 to 50 | 228 to 232 | –
